Measurements reported in US20250387324A1, “IN SITU FORMING IMPLANTS AND MICROPARTICLES FOR INTRAARTICULAR DRUG DELIVERY” (Mississippi State University, priority 2024, published 2025).

Columns and labels:
[1] = system: murine monocyte/macrophage-like cells; details: dose-dependent; cited from earlier work
collagenase = details: in vitro; cited from earlier work
[2] = system: RAW264.7 murine macrophages; details: cited from earlier work
[3] = 6% w/w PCG-containing diet for 37 days; cited from earlier work
type 2 collagenase = assay: Inhibition of collagenase-mediated cartilage degradation (pig cartilage disks, residual mass); format: biochemical
Protocol: The stability of PCG within a PLGA implant was examined by determining the ability of released PCG to inhibit collagenase-mediated cartilage degradation. Pig stifle (knee) joints were obtained from a local meat processor and full-thickness, cylindrical disks of articular cartilage (5 mm diameter) were harvested from the distal femurs. The disks were freeze-dried, weighed, and placed in Dulbecco's Modified Eagle Medium (DMEM) containing 0.0025% type 2 collagenase with and without 100 μM PCG (n=12 disks per group). Samples were incubated at 37° C. under gentle orbital shaking. At 3, 6, 9, and 12 days of incubation, three disks from each group were rinsed in distilled water, freeze-dried and weighed again, while the rest were allowed to continue incubation after adding fresh collagenase. The same experiment was repeated using implants made with 20% PLGA (50:50), NMP/BB 90/10, and 0 or 32 mg PCG per gram total implant weight (n=12 per group). Implants were formed in microcentrifuge tubes by pipetting 100 μl of the solution into distilled water. One hour later the water was replaced by the collagenase solution. Custom 3D-printed baskets were used to suspend the cartilage disks in the collagenase just above the implants. Disks were collected and weighed at the same 3-day intervals, with replacement of the collagenase solution each time. PCG concentration in the spent collagenase solution was determined by measuring absorbance at 373 nm and comparing to a standard curve generated from serial dilutions of PCG dissolved directly into DMEM. For both experiments, data are reported as residual mass of cartilage (final weight/initial weight). The overall effect of PCG was analyzed by two-way ANOVA with treatment and time as factors. Statistically significant effects of PCG at each time point were determined by independent t-test (equal variances not assumed).

collagen type II = collagen type II (Homo sapiens, UniProt P02458); details: non-covalent; cited from earlier work
collagen type II, sequence (P02458 182-1241 limits assumed): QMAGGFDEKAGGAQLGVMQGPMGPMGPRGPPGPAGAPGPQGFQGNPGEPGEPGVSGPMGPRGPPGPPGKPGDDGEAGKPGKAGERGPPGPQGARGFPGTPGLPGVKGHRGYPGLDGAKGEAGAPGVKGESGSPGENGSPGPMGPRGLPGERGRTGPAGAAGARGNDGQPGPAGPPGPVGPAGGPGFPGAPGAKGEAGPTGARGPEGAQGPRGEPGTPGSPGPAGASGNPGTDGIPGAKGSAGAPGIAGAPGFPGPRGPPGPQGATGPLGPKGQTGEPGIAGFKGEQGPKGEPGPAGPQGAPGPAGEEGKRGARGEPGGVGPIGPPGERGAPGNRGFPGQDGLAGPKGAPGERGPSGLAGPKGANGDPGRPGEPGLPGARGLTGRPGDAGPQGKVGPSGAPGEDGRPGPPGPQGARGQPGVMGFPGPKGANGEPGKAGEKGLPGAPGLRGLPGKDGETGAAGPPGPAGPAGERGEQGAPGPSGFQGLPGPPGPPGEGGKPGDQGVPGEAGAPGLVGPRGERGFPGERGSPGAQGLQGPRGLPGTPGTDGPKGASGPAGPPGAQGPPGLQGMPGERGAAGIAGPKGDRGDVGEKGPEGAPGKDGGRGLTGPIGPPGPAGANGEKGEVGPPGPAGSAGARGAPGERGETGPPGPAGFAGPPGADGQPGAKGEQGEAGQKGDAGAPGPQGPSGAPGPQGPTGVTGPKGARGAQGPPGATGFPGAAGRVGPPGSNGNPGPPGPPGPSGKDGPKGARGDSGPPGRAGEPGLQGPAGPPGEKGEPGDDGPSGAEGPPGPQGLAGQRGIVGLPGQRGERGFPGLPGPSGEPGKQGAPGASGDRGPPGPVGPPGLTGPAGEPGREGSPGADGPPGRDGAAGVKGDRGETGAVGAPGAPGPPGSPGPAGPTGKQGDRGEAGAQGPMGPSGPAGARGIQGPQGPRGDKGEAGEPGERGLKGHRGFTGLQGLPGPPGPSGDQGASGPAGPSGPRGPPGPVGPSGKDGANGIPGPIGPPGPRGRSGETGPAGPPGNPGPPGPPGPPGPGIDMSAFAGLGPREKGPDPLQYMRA

[4] = system: prostaglandin E2 (PGE2) production by human THP-1 macrophages; assay: LPS-stimulated PGE2 production by THP-1 macrophages (LC-MS/MS); format: cell-based
Excerpt: (§1) In addition to the inhibition of released collagenases, PCG is capable of suppressing the biosynthesis of inflammatory mediators that play important roles in the pathogenesis of OA. Such chondroprotective properties were investigated using THP-1 monocytes that had been differentiated into macrophages. THP-1 is a human leukemia monocytic cell line. THP-1 monocytes were expanded by suspension culture in RPMI 1640 medium supplemented with 10% FBS and 1% antibiotic-antimycotic solution. They were differentiated into macrophages by adding PMA to a final concentration of 20 nM and transferring them to monolayer culture for 72 h.^13 Inflammation was then induced by treatment with 1 μg/ml LPS. PCG was first dissolved at 5 mM in complete culture medium. One hour after LPS stimulation, cells were treated with PCG at final concentrations of 4, 20, 100, and 500 μM. Culture supernatant was collected 24 h later and IL-1β quantified using ELISA, with results expressed as a percentage of the unstimulated control.
In addition to IL-1β, prostaglandin E2 (PGE2) in the culture supernatants was quantified using mass spectrometry. […] The residues were then reconstituted in 100 μL of methanol and analyzed by liquid chromatography with tandem mass spectrometry (LC-MS/MS), as previously described.^13

[5] = system: adjuvant-induced arthritis; details: daily intraperitoneal doses, 50 mg/kg; cited from earlier work
[6] = Solvent screening for dissolving PCG; format: physicochemical
Protocol: The present inventor has developed a suitable in situ forming implant for sustained delivery of PCG. Polycarbonate, poly(lactic acid), and poly(lactide-co-glycolide) (PLGA) were dissolved in various solvents and screened for combinations that could also dissolve punicalagin and release it gradually from an implant formed in situ. PLGA emerged as the polymer that offered the best opportunity for the tuning of PCG release kinetics. Systems composed of PLGA and PCG dissolved in N-methyl-2-pyrrolidone (NMP) and/or benzyl alcohol (BA) consistently formed solid or hydrogel implants. […] Thus, one aspect of this invention is the characterization of PLGA in situ forming implants (originating from solutions containing NMP, BA, and BB) with respect to PCG stability and release kinetics.

[7] = system: monoiodoacetate-induced model of OA; details: cited from earlier work
fibroblast synoviocytes = details: cited from earlier work
[8] = system: IL-1β production by human THP-1 macrophages; assay: LPS-stimulated IL-1β production by THP-1 macrophages (ELISA); format: cell-based
Excerpt: as §1

Q: With O=C1O[C@H]2[C@@H]3OC(=O)c4cc(O)c(O)c(O)c4-c4c(O)c(O)c5oc(=O)c6c(c(O)c(O)c7oc(=O)c4c5c76)-c4c(cc(O)c(O)c4O)C(=O)OC[C@H]3OC(O)[C@@H]2OC(=O)c2cc(O)c(O)c(O)c2-c2c1cc(O)c(O)c2O (mixture of isomers) [PCG, punicalagin] as the molecule, how does the “lipopolysaccharide-stimulated production of IL-6” value [1] read?
A: suppressed

Q: And the “lipopolysaccharide-stimulated production of nitric oxide (NO)” value [1]?
A: suppressed

Q: What about the “lipopolysaccharide-stimulated production of prostaglandin E2 (PGE2)” value [1] of the same molecule?
A: suppressed

Q: What about the collagenase enzymatic activity (collagenase) of the same molecule?
A: inhibit its enzymatic activity

Q: And the “LPS-induced production of IL-1β” value [2]?
A: attenuated

Q: What about the “LPS-induced production of PGE2” value [2] of the same molecule?
A: attenuated

Q: What about the systemic toxicity [3] of the same molecule?
A: no systemic toxicity

Q: And the cartilage mass loss (type 2 collagenase; 100 μM PCG added directly, 12 days, 0.0025% type 2 collagenase)?
A: about 55%

Q: And the “collagenase-mediated degradation of cartilage” value (type 2 collagenase; added directly to collagenase solution or released from an ISI)?
A: significantly inhibited

Q: What about the “stability of PCG within PLGA ISI” value (type 2 collagenase; judged by collagenase inhibition of released PCG) of the same molecule?
A: at least 12 days

Q: And the “binding to collagen type II” value (collagen type II)?
A: high affinity

Q: What about the “attenuation of LPS-stimulated production of PGE2” value ([4]; PCG 500 μM) of the same molecule?
A: approximately 85%

Q: What about the “decrease in PGE2 production” value ([4]; PCG in the range of 4-100 μM) of the same molecule?
A: about 35%

Q: And the paw edema [5]?
A: significantly reduced paw edema

Q: What about the “solubility of PCG in benzyl benzoate (BB)” value [6] of the same molecule?
A: did not dissolve

Q: What about the “systemic toxicity (histology of major organs)” value ([7]; intraarticular PCG study) of the same molecule?
A: no evidence of systemic toxicity

Q: And the “erosion of cartilage compared to saline control” value ([7]; semi-weekly intraarticular injections, 9.2 mM PCG solution)?
A: less overall erosion of cartilage

Q: And the “TNF-α induced expression of IL-1β” value (fibroblast synoviocytes)?
A: reduce

Q: And the “TNF-α induced expression of IL-6” value (fibroblast synoviocytes)?
A: reduce

Q: And the “TNF-α induced expression of MMP-13” value (fibroblast synoviocytes)?
A: reduce

Q: And the “LPS-stimulated IL-1β production” value ([8]; PCG 4 μM, added 1 h after 1 μg/ml LPS, supernatant at 24 h)?
A: return to the unstimulated control level

Q: And the “LPS-stimulated IL-1β production” value ([8]; PCG 20 μM and above)?
A: suppression of practically all IL-1β synthesis
